Assay results as given in US7772260B2, “Imidazo[2,1-b]-1,3,4-thiadiazole sulfonamides” (Aegera Therapeutics Inc., priority 2001, dated 2010).
Structures can show the parent of a compound that is named as a salt. Where two headings read alike, the source gives them in different places.

What was measured:
CA II = CA II (Homo sapiens, UniProt P00918); test: CA II inhibition; format: biochemical
Experimental: CA II inhabition was measured using the protocol described by Pocker, Y.'Stone, J. Biochemistry 1967, 6, 668.

SCG neurons = test: cells; format: cell-based, Sprague Dawley rats; conditions: for IC50: Rattus norvegicus, Neuron; for inhibition of Taxol™ induced killing of SCGs: concentrations as high as 50 μM
Experimental: Taxol™ is regularly used in breast cancer chemotherapy. In cancer cells Taxol™ binds to the cyto-skeletal protein tubulin, thereby inhibiting normal microtubular assembly and inducing cellular apoptosis. Despite its potency as an anti-tumour agent, Taxol™ is also toxic to neurons, inducing dose limiting peripheral neuropathies. The addition of Taxol™ (100 ng/mL) to cultured SCG neurons induces the degradation or loss of upwards of 80% of the neurons.
FIG. 1 illustrates the protection provided by compound 1 (referred to here as AEG3482) against Taxol™ induced killing. PI Sprague Dawley rat SCG neurons were cultured and incubated with NGF (50 ng/mL) for 5 days.

[1] = read-out: IC(50), CA II inhibition
[2] = Taxol™ (50 ng/mL), viability 48 hours later, MTS, read-out: IC(50), protection of SCG neurons from Taxol killing
[3] = 48 h, read-out: IC(50), protection of SCG neurons from Taxol killing

| SMILES | IC50 (CA II; [1]) | IC50 (SCG neurons; [2]) | further results |
| --- | --- | --- | --- |
| COc1cccc(-c2cn3nc(S(N)(=O)=O)sc3n2)c1 [Compound 16, 6-(3-Methoxyphenyl)imidazo[2,1-b]-1,3,4-thiadiazole-2-sulfonamide] | 0.15 µM | 5 µM |  |
| CCCCN(CCCC)S(=O)(=O)c1nn2cc(-c3cccc(OC)c3)nc2s1 [Compound 142, 6-(3-Methoxyphenyl)imidazo[2,1-b]-1,3,4-thiadiazole-2-N,N-dibutylsulfonamide] | 60.3 µM | > 30 µM |  |
| CCSc1c(F)c(F)c(-c2cn3nc(S(N)(=O)=O)sc3n2)c(F)c1F [Compound 7, 6-(4-Ethylthio-2,3,5,6-tetrafluorophenyl)imidazo[2,1-b]-1,3,4-thiadiazole-2-sulfonamide] | 0.581 µM | 4 µM |  |
| CCN(CC)S(=O)(=O)c1ccc(-c2cn3nc(S(N)(=O)=O)sc3n2)cc1 [Compound 45] | 0.166 µM |  |  |
| NS(=O)(=O)c1nn2cc(-c3ccc(F)c(F)c3)nc2s1 [Compound 5, 6-(3,4-Difluorophenyl)imidazo[2,1-b]-1,3,4-thiadiazole-2-sulfonamide] | 0.192 µM | 5 µM |  |
| CNS(=O)(=O)c1nn2cc(-c3ccccc3)nc2s1 [Compound 137, 6-Phenyl-imidazo[2,1-b]-1,3,4-thiadiazole-2-N-methylsulfonamide] |  | 10 µM | decrease in CAII activity relative to compound 1 (CA II; compound 137 versus compound 1): 100 fold; IC50 (CA II; read-out: CAII(50) / CAII IC(50)): 2.06 µM; IC50 (SCG neurons; read-out: IC(50) against Taxol killing of SCGs): 7 µM |
| NS(=O)(=O)c1nn2cc(-c3ccc(C(=O)O)cc3)nc2s1 [Compound 39] | 0.154 µM |  |  |
| NS(=O)(=O)c1nn2cc(-c3ccc(Cl)c(Cl)c3Cl)nc2s1 [Compound 12, 6-(2,3,4-trichlorophenyl)imidazo[2,1-b]-1,3,4-thiadiazole-2-sulfonamide] | 1.59 µM | 5 µM |  |
| NS(=O)(=O)c1nn2cc(-c3ccc4c(c3)OCO4)nc2s1 [Compound 20, 6-(1,3-Benzodioxol-5-yl)imidazo[2,1-b]-1,3,4-thiadiazole-2-sulfonamide] | 0.404 µM | 15 µM |  |
| NS(=O)(=O)c1nn2cc(-c3cccc([N+](=O)[O-])c3)nc2s1 [Compound 37, 6-(3-Nitrophenyl)imidazo[2,1-b]-1,3,4-thiadiazole-2-sulfonamide] | 0.199 µM | 10 µM |  |
| NS(=O)(=O)c1nn2cc(-c3ccccn3)nc2s1 [Compound 105, 6-(2-Pyridyl)imidazo[2,1-b]-1,3,4-thiadiazole-2-sulfonamide] | 0.15 µM | 7 µM |  |
| COc1ccc(-c2cn3nc(S(N)(=O)=O)sc3n2)cc1 [Compound 17, 6-(4-Methoxyphenyl)imidazo[2,1-b]-1,3,4-thiadiazole-2-sulfonamide] | 0.179 µM | 3 µM |  |
| NS(=O)(=O)c1nn2cc(-c3c(F)c(F)c(SCc4ccccc4)c(F)c3F)nc2s1 [Compound 8, 6-(4-Benzylthio-2,3,5,6-tetrafluorophenyl)imidazo[2,1-b]-1,3,4-thiadiazole-2-sulfonamide] | 1.47 µM | 5 µM |  |
| COc1ccc(OC)c(-c2cn3nc(S(N)(=O)=O)sc3n2)c1 [Compound 18, 6-(2,5-Dimethoxyphenyl)imidazo[2,1-b]-1,3,4-thiadiazole-2-sulfonamide] | 0.337 µM | 20 µM |  |
| NS(=O)(=O)c1nn2cc(-c3ccc4ccccc4c3)nc2s1 [Compound 62, 6-(2-Naphthyl)imidazo[2,1-b]-1,3,4-thiadiazole-2-sulfonamide] |  | 15 µM |  |
| NS(=O)(=O)c1nn2cc(-c3ccc([N+](=O)[O-])s3)nc2s1 [Compound 114, 6-(5-Nitro-2-thiophenyl)-imidazo[2,1-b]-1,3,4-thiadiazole-2-sulfonamide hydrobromide] |  | 7 µM |  |
| NS(=O)(=O)c1nn2cc(-c3csc4ccccc34)nc2s1 [Compound 116, 6-(Benzo[b]thiophen-3-yl)imidazo[2,1-b]-1,3,4-thiadiazole-2-sulfonamide] |  | 7 µM |  |
| NS(=O)(=O)c1nn2c(Cl)c(-c3ccc(-c4ccccc4)cc3)nc2s1 [Compound 131, 5-Chloro-6-(biphenyl)imidazo[2,1-b]-1,3,4-thiadiazole-2-sulfonamide hydrobromide] |  | 3 µM |  |
| CN(C)S(=O)(=O)c1nn2cc(-c3cccc(OC(=O)c4ccccc4)c3)nc2s1 [Compound 146, 6-(3-Benzoyloxyphenyl)imidazo[2,1-b]-1,3,4-thiadiazole-2-N,N-dimethylsulfonamide] |  | 20 µM |  |
| NS(=O)(=O)c1nn2cc(-c3ccc(N4CCOCC4)cc3)nc2s1 [Compound 68, 6-(4-Morpholinophenyl)imidazo[2,1-b]-1,3,4-thiadiazole-2-sulfonamide] |  | 7 µM |  |
| NS(=O)(=O)c1nn2cc(-c3ccc4c(c3)NC(=O)CO4)nc2s1 [Compound 110] |  | > 30 µM |  |
| NS(=O)(=O)c1nn2cc(-c3ccncc3)nc2s1 [Compound 107, 6-(4-Pyridyl)imidazo[2,1-b]-1,3,4-thiadiazole-2-sulfonamide] |  | 20 µM |  |
| CN(C)S(=O)(=O)c1nn2cc(-c3cccc(O)c3)nc2s1 [Compound 145] |  | 20 µM |  |

| SMILES | IC50 (CA II; [1]) | IC50 (SCG neurons; [2]) | further results |
| --- | --- | --- | --- |
| Cc1cc2c(cc1-c1cn3nc(S(N)(=O)=O)sc3n1)C(C)(C)CCC2(C)C [Compound 57] |  |  | IC50 (SCG neurons; [3]): 6 µM |
| CS(=O)(=O)c1ccc(-c2cn3nc(S(N)(=O)=O)sc3n2)cc1 [Compound 43, 6-(4-(methylsulfonyl)phenyl)imidazo[2,1-b]-1,3,4-thiadiazole-2-sulfonamide] | 0.886 µM |  |  |
| CC(=O)N[C@@H](C)c1ccc(-c2cn3nc(S(N)(=O)=O)sc3n2)cc1 [Compound 58, 6-(4-(S-1-acetamidoethyl)phenyl)imidazo[2,1-b]-1,3,4-thiadiazole-2-sulfonamide] |  | 30 µM |  |
| CCN[C@H]1C[C@H](C)S(=O)(=O)c2sc(S(N)(=O)=O)cc21 [Dorzolamide, reference compound] |  |  | inhibition of Taxol™ induced killing of SCGs (SCG neurons): failed to significantly inhibit |
| [N-]=[N+]=Nc1c(F)c(F)c(-c2cn3nc(S(N)(=O)=O)sc3n2)c(F)c1F [Compound 151, 6-(4-Azido-2,3,5,6-tetraflourophenyl)imidazo[2,1-b]-1,3,4-thiadiazole-2-sulfonamide] |  | 2 µM |  |
| NS(=O)(=O)c1nn2cc(-c3cc(-c4ccccc4)no3)nc2s1 [Compound 117, 6-(3-Phenylisoxazol-5-yl)imidazo[2,1-b]-1,3,4-thiadiazole-2-sulfonamide] |  | 3 µM |  |
| NS(=O)(=O)c1nn2cc(C34CC5CC(CC(C5)C3)C4)nc2s1 [Compound 60, 6-(1-adamantyl)imidazo[2,1-b]-1,3,4-thiadiazole-2-sulfonamide] |  | 25 µM |  |
| COc1cccc(-c2nc3sc(S(N)(=O)=O)nn3c2Br)c1Br [Compound 129, 5-Bromo-6-(2-bromo3-methoxyphenyl)imidazo[2,1-b]-1,3,4-thiadiazole-2-sulfonamide hydrobromide] |  | 7 µM |  |
| CC(=O)Nc1nnc(S(N)(=O)=O)s1 [acetazolamide, reference compound] |  |  | inhibition of Taxol™ induced killing of SCGs (SCG neurons): failed to significantly inhibit |
| NS(=O)(=O)c1nn2c(-c3ccccc3)c(-c3ccccc3)nc2s1 [Compound 66, 5,6-Diphenyl-imidazo[2,1-b]-1,3,4-thiadiazole-2-sulfonamide] |  | 20 µM |  |
| NS(=O)(=O)c1nn2cc(-c3ccc(-c4ccccc4)s3)nc2s1 [Compound 113, 6-(5-Phenylthiophen-2-yl)-imidazo[2,1-b]-1,3,4-thiadiazole-2-sulfonamide] |  | 7 µM |  |
| NS(=O)(=O)c1nn2cc(-c3ccc(OCCCOCc4ccccc4)cc3)nc2s1 [Compound 32] |  | 10 µM |  |
| Nc1ccc(S(=O)(=O)Nc2nnc(S(N)(=O)=O)s2)cc1 [aminobenzolamide, reference compound] |  |  | inhibition of Taxol™ induced killing of SCGs (SCG neurons): failed to significantly inhibit |
| CC(=O)Nc1ccc(S(=O)(=O)Nc2nnc(S(N)(=O)=O)s2)cc1 [N-acetylaminobenzolamide, reference compound] |  |  | inhibition of Taxol™ induced killing of SCGs (SCG neurons): failed to significantly inhibit |
| CC(=O)/N=c1/sc(S(N)(=O)=O)nn1C [methazolamide, reference compound] |  |  | inhibition of Taxol™ induced killing of SCGs (SCG neurons): failed to significantly inhibit |
| COC(=O)COc1ccc(-c2nc3sc(S(N)(=O)=O)nn3c2C)cc1 [Compound 103] |  | > 30 µM |  |
| CC1(C)CCC(C)(C)c2cc(-c3cn4nc(S(N)(=O)=O)sc4n3)ccc21 [Compound 56, 6-(5,5,8,8-Tetramethyl-5,6,7,8-tetrahydronaphthalen-2-yl)imidazo[2,1-b]-1,3,4-thiadiazole-2-sulfonamide] |  |  | IC50 (SCG neurons; [3]): 3 µM |
| CN(C)S(=O)(=O)c1nn2cc(-c3c(F)c(F)c(F)c(F)c3F)nc2s1 [Compound 140, 6-(2,3,4,5,6-pentafluorophenyl)imidazo[2,1-b]-1,3,4-thiadiazole-2-N,N-dimethylsulfonamide] |  | 5 µM |  |
| Nc1ccc(-c2cn3nc(S(N)(=O)=O)sc3n2)cc1 [Compound 70, 6-(4-Aminophenyl)imidazo[2,1-b]-1,3,4-thiadiazole-2-sulfonamide] |  | 22 µM |  |
| Cc1ccc(C23CC4CC(CC(C4)C2)C3)cc1-c1cn2nc(S(N)(=O)=O)sc2n1 [Compound 51] |  | 5 µM |  |
| NS(=O)(=O)c1nn2cc(-c3nccs3)nc2s1 [Compound 121, 6-(Thiaxol-2-yl)imidazo[2,1-b]-1,3,4-thiadiazole-2-sulfonamide] |  | 2 µM |  |
| NS(=O)(=O)c1nn2cc(-c3ccc(N4CCCCC4)cc3)nc2s1 [Compound 67, 6-(4-Piperidinophenyl)imidazo[2,1-b]-1,3,4-thiadiazole-2-sulfonamide] |  | 10 µM |  |
